Measured values as given in PubChem BioAssay (NCI).
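Assay format: 96-well plates, 48-hour exposure. Definition used: TGI = concentration required for complete inhibition of growth.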

How the values were obtained:
Assay in all cases: DTP human tumour cell line panel, 48 h
[1] = system: U251 CNS
[2] = system: HCT-116 colon
[3] = system: HCT-15 colon
[4] = system: MOLT-4 leukemia
[5] = system: SR leukemia
[6] = system: KM20L2 colon
[7] = system: OVCAR-4 ovarian
[8] = system: COLO 205 colon
[9] = system: ACHN renal
[10] = system: SN12C renal
[11] = system: A549 NSCLC
[12] = system: RXF 393 renal
[13] = system: DMS 273 small cell lung
[14] = system: UACC-62 melanoma
[15] = system: TK-10 renal
[16] = system: UO-31 renal
[17] = system: SK-OV-3 ovarian
[18] = system: UACC-257 melanoma
[19] = system: CAKI-1 renal
[20] = system: A498 renal
[21] = system: LOX IMVI melanoma
[22] = system: RPMI-8226 leukemia
[23] = system: SNB-19 CNS
[24] = system: 786-0 renal
[25] = system: OVCAR-3 ovarian
[26] = system: LXFL 529 NSCLC
[27] = system: K-562 leukemia
[28] = system: KM12 colon
[29] = system: SW-620 colon
[30] = system: HOP-62 NSCLC
[31] = system: NCI-H522 lung
[32] = system: DLD-1 colon
[33] = system: OVCAR-5 ovarian
[34] = system: HL-60(TB) leukemia
[35] = system: NCI-H23 lung
[36] = system: HT29 colon
[37] = system: SF-295 CNS
[38] = system: DMS 114 small cell lung
[39] = system: IGROV1 ovarian
[40] = system: MALME-3M melanoma
[41] = system: HCC-2998 colon
[42] = system: SK-MEL-5 melanoma
[43] = system: EKVX NSCLC
[44] = system: M19-MEL melanoma
[45] = system: OVCAR-8 ovarian
[46] = system: HOP-18 NSCLC
[47] = system: SNB-75 CNS
[48] = system: M14 melanoma
[49] = system: SF-268 CNS
[50] = system: SK-MEL-2 melanoma
[51] = system: NCI-H226 lung
[52] = system: SK-MEL-28 melanoma
[53] = system: PC-3 prostate
[54] = system: NCI/ADR-RES ovarian
[55] = system: T-47D breast
[56] = system: NCI-H460 lung
[57] = system: BT-549 breast
[58] = system: MCF7 breast
[59] = system: HS 578T breast
[60] = system: HOP-92 NSCLC
[61] = system: MDA-MB-435
[62] = system: MDA-MB-231 breast
[63] = system: DU-145 prostate
[64] = system: MDA-N
[65] = system: CCRF-CEM leukemia
[66] = system: SF-539 CNS

Cc1ccccc1NC(=O)/C=N/O
TGI [1]: > 100 µM | TGI [2]: > 100 µM | TGI [3]: > 100 µM | TGI [4]: > 100 µM | TGI [5]: > 100 µM | TGI [6]: 32 µM | TGI [7]: > 100 µM | TGI [8]: > 100 µM | TGI [9]: > 100 µM | TGI [10]: > 100 µM | TGI [11]: > 100 µM | TGI [12]: > 100 µM | TGI [13]: > 100 µM | TGI [14]: 27.9 µM | TGI [15]: > 100 µM | TGI [16]: > 100 µM | TGI [17]: > 100 µM | TGI [18]: > 100 µM | TGI [19]: > 100 µM | TGI [20]: > 100 µM | TGI [21]: > 100 µM | TGI [22]: > 100 µM | TGI [23]: > 100 µM | TGI [24]: > 100 µM | TGI [25]: > 100 µM | TGI [26]: > 100 µM | TGI [27]: > 100 µM | TGI [28]: > 100 µM | TGI [29]: > 100 µM | TGI [30]: > 100 µM | TGI [31]: > 100 µM | TGI [32]: > 100 µM | TGI [33]: > 100 µM | TGI [34]: 48.5 µM | TGI [35]: > 100 µM | TGI [36]: > 100 µM | TGI [37]: > 100 µM | TGI [38]: > 100 µM | TGI [39]: > 100 µM | TGI [40]: > 100 µM | TGI [41]: > 100 µM | TGI [42]: > 100 µM | TGI [43]: 39.6 µM | TGI [44]: > 100 µM | TGI [45]: > 100 µM | TGI [46]: > 100 µM | TGI [47]: > 100 µM | TGI [48]: > 100 µM | TGI [49]: > 100 µM | TGI [50]: > 100 µM | TGI [51]: > 100 µM | TGI [52]: > 100 µM

C=C1C(=O)OC2C1C(OC(=O)/C(C)=C/C)CC(O)(CCl)C1C(O)C=C(C)C21O (stereo unspecified)
TGI [53]: > 51.3 µM | TGI [1]: 65.1 µM | TGI [2]: 18.9 µM | TGI [3]: 14.4 µM | TGI [54]: 55.6 µM | TGI [4]: 20.6 µM | TGI [5]: 29.2 µM | TGI [7]: 30 µM | TGI [8]: 18.5 µM | TGI [55]: 42.2 µM | TGI [9]: 18.2 µM | TGI [10]: 29.4 µM | TGI [11]: > 63.7 µM | TGI [12]: 18.3 µM | TGI [56]: 36.2 µM | TGI [14]: 25.5 µM | TGI [15]: 27.6 µM | TGI [16]: 33.9 µM | TGI [17]: > 100 µM | TGI [57]: 23.4 µM | TGI [18]: 25.6 µM | TGI [19]: 11.4 µM | TGI [20]: > 60.1 µM | TGI [21]: 17.8 µM | TGI [22]: 30.6 µM | TGI [23]: > 64.2 µM | TGI [58]: 16.7 µM | TGI [24]: 18.4 µM | TGI [25]: 27.7 µM | TGI [59]: > 100 µM | TGI [27]: > 100 µM | TGI [28]: 49.8 µM | TGI [29]: 15.7 µM | TGI [60]: 24.4 µM | TGI [30]: > 67.2 µM | TGI [31]: 3.29 µM | TGI [33]: 32.4 µM | TGI [34]: 18 µM | TGI [35]: 28.3 µM | TGI [36]: 31.5 µM | TGI [37]: > 100 µM | TGI [61]: > 62.1 µM | TGI [39]: 31.6 µM | TGI [40]: 8.9 µM | TGI [41]: 25.6 µM | TGI [42]: 27.7 µM | TGI [43]: 29.9 µM | TGI [45]: 37.2 µM | TGI [62]: 30.9 µM | TGI [63]: 30.7 µM | TGI [47]: > 59 µM | TGI [64]: 37.3 µM | TGI [48]: 23.8 µM | TGI [65]: > 36.8 µM | TGI [49]: > 69.5 µM | TGI [50]: > 50.3 µM | TGI [51]: 46.5 µM | TGI [66]: 65.5 µM | TGI [52]: 35 µM
